In patent publication US7273873B2, “Camptothecins with a modified lactone ring” (Sigma-Tau Industrie Farmaceutiche Riunite S.p.A., priority 2002, dated 2007):
Like-named read-outs stand apart in the source and are kept apart here.

Tests used:
[1] = tested on: NCI-H460; experiment: Antiproliferative (cytotoxicity) test, sulforhodamine B, NCI-H460 cells; type: cell-based, human
Description: The cytotoxic activity of the compounds according to the present invention has been assayed in cell systems of human tumour cells, using the antiproliferative activity test as the method of evaluating the cytotoxic potential.
The cell line used is a non-microcytoma pulmonary adenocarcinoma called NCI H460, belonging to the NSCLC (non small cell lung cancer) class.
To evaluate the effect of the compounds according to the present invention, their cytotoxocity against the non-microcytoma lung cancer cell line (NCI-H460) was evaluated. Cells from the American Type Culture Collection (ATCC) were maintained in culture in RPMI 1640 (GIBCO) containing 10% foetal calf serum and gentamicin sulphate at a concentration of 50 µg/ml.
The cells were seeded in a volume of 250 μl in 96-well plates and incubated for 24 h at 37° C. The next day the study compounds were added at scalar concentrations from 1 μM to 0.004 μM, and the cells were incubated for another 2 h at 37° C. in a humidified atmosphere containing 5% CO2. The cells were washed 3 times, overturning the plates each time and adding PBS. 200 μl/well of RPMI 1640 medium containing 10% FCS were added and the plates were incubated at 37° C. for a further 72 h. On day 5, the growth medium was removed by overturning the plates, and 200 μl/well of PBS and 50 μl of 80% cold TCA were added. The plates were then incubated in ice for at least 1 h. The TCA was removed by overturning; the plates were washed 3 times by immersion in distilled water and dried first on blotting paper and then under a hot air jet. 200 μl of 0.4% sulforodamine B in 1% acetic acid were added to all wells. The plates were incubated at room temperature for a further 30 minutes. The sulforodamine B was removed by overturning; the plates were washed by immersion 3 times in 1% acetic acid and then dried first on blotting paper and then with a jet of hot air. 200 μl of Tris base 10 mM were added to all wells and the plates were subjected to stirring for at least 20 minutes. The optical density was measured using a Multiskan spectrophotometer at 540 nm.
Table 1 presents the IC50 values, that is to say the concentration capable of inhibiting 50% of cell survival, for each compound examined, processed using ALLFIT software.

[2] = 2 h exposure, 72 h recovery, sulforodamine B, concentration inhibiting 50% of cell survival, read-out: NCI-H460 IC50

| SMILES | IC50 [1, 2] [nM] | other results |
| --- | --- | --- |
| CCC1(CC(=O)OC(C)(C)C)OC(=O)c2c1cc1n(c2=O)Cc2cc3ccccc3nc2-1 (centres unmarked) [ST2084, Ter-butyl ester of (3-ethyl-1,13-dioxo-11,13-dihydro-1H,3H-furo[3′,4′:6,7]indolizino[1,2-b]quinolin-3-yl)acetic acid] | > 1000 |  |
| CCC1(CC(=O)O)OC(=O)c2c1cc1n(c2=O)Cc2cc3ccccc3nc2-1 (centres unmarked) [ST2085, (3-ethyl-1,13-dioxo-11,13-dihydro-1H,3H-furor[3′,4′:6,7]indolizino[1,2-b]quinolin-3-yl)acetic acid] | > 1000 |  |
| CCC1(O)CC(=O)OCc2c1cc1n(c2=O)Cc2c-1nc1ccccc1c2C=NOC(C)(C)C (centres unmarked) [ST2127, R,S-7-(1-t-butoxy)iminomethyl-homocamptothecin] | 26 |  |
| CCC1(O)CC(=O)OCc2c1cc1n(c2=O)Cc2c-1nc1ccccc1c2/C=N/OCc1ccccc1 (centres unmarked) [ST2143, R,S-7-benzyloxyiminomethyl-homocamptothecin] | 7 |  |
| CCC1(CC(=O)O)OC(=O)c2c1cc1n(c2=O)Cc2c-1nc1ccccc1c2/C=N/OC(C)(C)C (centres unmarked) [ST2196, {10-[(E)-(ter-butoxyimino)methyl]-3-ethyl-1,13-dioxo-11,13-dihydro-1H,3H-furo[3′,4′:6.7]indolizino[1,2-b]quinolin-3-yl} acetic acid] | > 1000 |  |
| CCC1(CC(=O)O)OC(=O)c2c1cc1n(c2=O)Cc2c-1nc1ccccc1c2/C=N/OCc1ccccc1 (centres unmarked) [ST2285, (10-{(E)-[(benzyloxy)imino]methyl}-3-ethyl-1,13-dioxo-11,13-dihydro-1H,3H-furo[3′,4′:6,7]indolizino[1,2-b]quinolin-3-yl)-acetic acid] |  | IC50 ([1]; Homo sapiens, NCI-H460, 2 h exposure, 72 h recovery, sulforodamine B, concentration inhibiting 50% of cell survival, read-out: NCI-H460 IC50): > 1000 nM; melting point: 188 °C (dec.) |
| CCC1(O)CC(=O)OCc2c1cc1n(c2=O)Cc2c-1nc1ccccc1c2C=NOC(C)(C)C (centres unmarked) [ST2523] |  | IC50 ([1]; H460 cells, isolated enantiomers of ST2127, read-out: IC50 (H460)): > 200 nM |
